From ChEMBL document CHEMBL5120788, “Structure-activity relationship studies of functionalized aromatic peptidomimetics as neurolysin activators” (Bioorg Med Chem Lett, 2022)

Tests used:
[1] = target: Neurolysin, mitochondrial (Rattus norvegicus, UniProt P42676); assay: Activation of recombinant rat Nln using MCA-Pro-Leu-Gly-Pro-D-Lys (DNP)-OH as substrate preincubated for 10 mins followed by substrate addition and measured after 20 mins by fluorescence based assay
[2] = target: Neurolysin, mitochondrial (Rattus norvegicus) (UniProt P42676); assay: Activation of recombinant rat Nln assessed as maximal efficacy using MCA-Pro-Leu-Gly-Pro-D-Lys (DNP)-OH as substrate preincubated for 10 mins followed by substrate addition and measured after 20 mins by fluorescence based assay relative to control; conditions: filed as activator, time 30.0 min
[3] = Permeability of compound in mouse BEND3 cells co-cultured with mouse primary astrocytes measured upto 120 mins by LC-MS/MS; format: ADME, cell-based; conditions: 2 h

Chain of Neurolysin, mitochondrial (Rattus norvegicus) (P42676 38-704 limits assumed): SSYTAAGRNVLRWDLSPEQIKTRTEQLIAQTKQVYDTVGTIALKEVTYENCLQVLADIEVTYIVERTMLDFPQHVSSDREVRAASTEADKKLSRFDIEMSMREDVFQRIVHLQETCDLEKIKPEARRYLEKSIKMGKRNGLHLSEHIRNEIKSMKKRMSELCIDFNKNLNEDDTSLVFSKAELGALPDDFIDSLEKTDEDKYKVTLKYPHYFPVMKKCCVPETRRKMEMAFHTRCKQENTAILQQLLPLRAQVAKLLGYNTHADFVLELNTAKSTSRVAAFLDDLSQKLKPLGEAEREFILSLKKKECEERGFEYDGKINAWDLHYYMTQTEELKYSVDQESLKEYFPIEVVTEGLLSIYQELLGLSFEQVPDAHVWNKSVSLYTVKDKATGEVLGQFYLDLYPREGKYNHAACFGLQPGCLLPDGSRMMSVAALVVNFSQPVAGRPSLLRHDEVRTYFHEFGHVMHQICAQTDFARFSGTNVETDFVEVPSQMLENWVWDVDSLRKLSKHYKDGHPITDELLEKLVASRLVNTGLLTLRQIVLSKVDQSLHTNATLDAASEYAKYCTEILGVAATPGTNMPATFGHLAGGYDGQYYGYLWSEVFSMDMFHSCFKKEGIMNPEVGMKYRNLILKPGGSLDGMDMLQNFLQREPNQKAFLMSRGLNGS
Chain of Neurolysin, mitochondrial (P42676 whole entry): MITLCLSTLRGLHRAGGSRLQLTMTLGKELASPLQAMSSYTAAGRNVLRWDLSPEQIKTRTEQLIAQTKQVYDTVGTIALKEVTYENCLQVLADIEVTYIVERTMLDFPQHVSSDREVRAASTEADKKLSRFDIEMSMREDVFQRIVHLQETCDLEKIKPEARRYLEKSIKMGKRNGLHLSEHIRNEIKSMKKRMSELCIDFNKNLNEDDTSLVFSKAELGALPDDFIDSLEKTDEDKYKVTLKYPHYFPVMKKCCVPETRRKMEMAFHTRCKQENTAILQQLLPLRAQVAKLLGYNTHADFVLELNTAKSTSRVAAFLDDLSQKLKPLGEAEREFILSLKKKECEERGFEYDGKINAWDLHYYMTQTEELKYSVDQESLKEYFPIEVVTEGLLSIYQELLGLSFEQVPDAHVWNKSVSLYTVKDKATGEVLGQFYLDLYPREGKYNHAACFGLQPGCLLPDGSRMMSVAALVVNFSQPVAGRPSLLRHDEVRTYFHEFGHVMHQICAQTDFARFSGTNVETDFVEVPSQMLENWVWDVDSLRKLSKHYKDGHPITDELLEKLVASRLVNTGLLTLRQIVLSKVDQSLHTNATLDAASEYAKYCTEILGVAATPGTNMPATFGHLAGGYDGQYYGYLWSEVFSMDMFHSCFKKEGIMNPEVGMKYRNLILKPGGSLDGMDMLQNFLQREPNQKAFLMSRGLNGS

| Structure (SMILES) | EC50 [1] | Emax [2] | permeability [3] |
| --- | --- | --- | --- |
| COc1cc(NC(=O)[C@@H](N)Cc2c[nH]cn2)cc(OC)c1OC | 117 µM | 436% | – |
| COc1cccc(NC(=O)[C@@H](N)Cc2c[nH]cn2)c1 | 105 µM | 454% | – |
| COc1cc(NC(=O)[C@@H](N)Cc2c[nH]cn2)cc(OC)c1 | 52.1 µM | 463% | Permeable |
| N[C@H](Cc1c[nH]cn1)C(=O)Nc1ccc(C(F)(F)F)cc1 | 15.6 µM | 325% | Permeable |
| N[C@@H](Cc1c[nH]cn1)C(=O)Nc1cc(F)cc(F)c1 | 90.6 µM | 431% | – |
| COc1ccc(NC(=O)[C@@H](N)Cc2c[nH]cn2)cc1 | 241 µM | 582% | – |
| N[C@@H](Cc1c[nH]cn1)C(=O)Nc1ccc(C(F)(F)F)cc1 | 32.2 µM | 335% | – |
| N[C@H](Cc1c[nH]cn1)C(=O)Nc1ccc(F)cc1 | 36.1 µM | 403% | – |
| COc1ccccc1NC(=O)[C@H](N)Cc1c[nH]cn1 | 53.5 µM | 428% | – |
| N[C@@H](Cc1c[nH]cn1)C(=O)Nc1ccc(F)cc1 | 136 µM | 488% | – |
| N[C@@H](Cc1c[nH]cn1)C(=O)Nc1c(F)cc(Br)cc1F | 26.7 µM | 370% | – |
| N[C@@H](Cc1c[nH]cn1)C(=O)Nc1cccc(C(F)(F)F)c1 | 28.6 µM | 312% | – |
| N[C@@H](Cc1c[nH]cn1)C(=O)Nc1ccc(C(F)(F)F)cc1C(F)(F)F | 25.2 µM | 368% | – |
| COc1ccc(NC(=O)[C@H](N)Cc2c[nH]cn2)cc1 | 214 µM | 540% | – |
| N[C@@H](Cc1c[nH]cn1)C(=O)Nc1ccccc1F | 37.5 µM | 268% | – |
| COc1ccccc1NC(=O)[C@@H](N)Cc1c[nH]cn1 | 45.1 µM | 426% | – |
| N[C@H](Cc1c[nH]cn1)C(=O)Nc1cccc(F)c1 | 30.9 µM | 396% | – |
| N[C@H](Cc1c[nH]cn1)C(=O)Nc1ccccc1F | 78.2 µM | 331% | – |
| N[C@@H](Cc1c[nH]cn1)C(=O)Nc1cccc(F)c1 | 24.8 µM | 382% | – |
| COc1cccc(NC(=O)[C@H](N)Cc2c[nH]cn2)c1 | 121 µM | 478% | – |
| N[C@H](Cc1c[nH]cn1)C(=O)Nc1cccc(C(F)(F)F)c1 | 22.8 µM | 362% | – |
| N[C@@H](Cc1c[nH]cn1)C(=O)Nc1cc(C(F)(F)F)cc(C(F)(F)F)c1 | 279 µM | 633% | – |
